# From PMC9105102, “Development and Biochemical Characterization of Self-Immolative Linker Containing GnRH-III-Drug Conjugates” (International Journal of Molecular Sciences, 2022)
# Like-named read-outs stand apart in the source and are kept apart here.
# Assays:
# [1] = system: Panc-1 human pancreatic cancer cells; test: cells; assay type: cell-based; conditions: for activity on Panc-1 cells lower than on A2780: ratio Panc-1 vs A2780
# Method: (§1) For cultivation of A2780 human ovarian and Panc-1 human pancreatic cancer cells, RPMI-1640 medium with 10% FBS, L-glutamine and 1% Penicillin-Streptomycin were used. Cells were cultured in appropriate plastic flasks at 37 °C (humidified atmosphere, 5% CO2/95% air).
# (§2) A set-up of 96-well plates was used to study the in vitro antiproliferative activity. Therefore, 5 × 10^3 cells in 100 µL complete medium were seeded to each well. After 24 h, complete medium was removed and cells were treated with 200 µL bioconjugate solution in serum-free medium (concentration range 0.0032–50 µM, control wells were treated with serum-free medium). Medium was taken out after 6 h treatment (PTX conjugates) or 24 h (Dau conjugates), replaced by complete medium and incubation was continued. To determine the cell viability, medium was removed after 72 h and 100 µL resazurin solution [45] (10% Tox-8 in FBS-free medium) was added to each well, followed by additional incubation of 2–3 h. A Tecan infinite 200 pro microplate reader (Tecan Group Ltd., Zürich, Switzerland) was used for fluorescence detection (λEx = 560 and λEm = 590 nm). Experiments were performed at least twice, using three parallels per concentration. The cell viability (and IC50 values) was calculated with GraphPad Prism using a nonlinear regression (sigmoidal dose-response).
# [2] = system: A2780 human ovarian cancer cells; test: cells; assay type: cell-based
# Method: as §1, §2
# [3] = molecular target: T1, GnRH-R (membranes of human prostate cancer specimens) (Homo sapiens, UniProt P30968); test: Radioligand competition assay, displacement of [125I]-GnRH-I-[6D-Trp] (triptorelin), human prostate cancer membranes; conditions: mean ± SE of two to three determinations, read-out: IC50 Prostate Cancer, competitive inhibition of [125I][6D-Trp]-GnRH-I binding
# T1 construct: GnRH-Rs expressed on human pituitary and human prostate cancer cells; from tissue; host or cells: human prostate cancer specimens from patients (surgery); membrane homogenate
# T1 sequence (P30968 1-328): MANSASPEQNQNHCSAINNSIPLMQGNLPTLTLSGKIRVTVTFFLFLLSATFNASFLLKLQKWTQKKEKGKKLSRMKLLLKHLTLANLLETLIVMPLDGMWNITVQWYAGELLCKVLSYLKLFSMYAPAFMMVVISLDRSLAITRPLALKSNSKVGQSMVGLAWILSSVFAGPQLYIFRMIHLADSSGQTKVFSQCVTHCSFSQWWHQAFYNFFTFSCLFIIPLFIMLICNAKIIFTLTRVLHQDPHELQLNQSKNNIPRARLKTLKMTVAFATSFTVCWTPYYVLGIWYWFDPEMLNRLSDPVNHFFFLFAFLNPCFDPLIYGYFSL
# Method: (§3) A ligand competition assay with [^125I]-GnRH-I-[^6D-Trp] as radioligand was performed to examine the binding affinity of the GnRH-III-drug conjugates to GnRH-Rs expressed on human pituitary and human prostate cancer cells. Human prostate cancer cells were derived from patients at the time of initial surgical treatment, while tissue samples from normal human pituitary (anterior lobe) were obtained by autopsy. All subjects were informed and gave their consent for inclusion before they participated in the study. The preparation of the cell membranes was carried out according to the literature. The chloramines-T method was used to prepare radioiodinated GnRH-I agonist triptorelin which was purified by RP-HPLC [10, 38, 39, 47]. The displacement of [^125I]-GnRH-I-[^6D-Trp] was studied in an in vitro ligand competition assay to determine the binding affinities of the non-radio-labeled GnRH-III bioconjugates to GnRH-RI [10, 11, 38, 39]. Membrane homogenates containing […] protein were incubated in duplicate or triplicate with 60–80,000 cpm [^125I]-GnRH-I-[^6D-Trp] and rising concentration (1 pM—1 µM) of nonradioactive bioconjugates as competitors in a total volume of […] binding buffer. Protein concentration was determined by the method of Bradford using a Bio-Rad protein assay kit (Bio-Rad Laboratories, Hercules, CA, USA). The LIGAND-PC computerized curve-fitting program of Munson and Rodbard was used to determine the receptor binding characteristics and IC50 values.
# [4] = molecular target: T2, GnRH-R (membranes of human pituitary) (Homo sapiens, UniProt P30968); test: Radioligand competition assay, displacement of [125I]-GnRH-I-[6D-Trp] (triptorelin), human pituitary membranes; assay type: binding; conditions: for GnRH-R binding of the radiotracer affected: at concentrations up to 1 µM, unrelated peptides; for displacement of radio-labelled triptorelin from GnRH-Rs: human pituitary and human prostate cancer tissues, GnRH unrelated peptides
# T2 construct: GnRH-Rs expressed on human pituitary and human prostate cancer cells; from tissue; host or cells: normal human pituitary (anterior lobe), autopsy; membrane homogenate
# T2 sequence (P30968 1-328): T1 sequence (P30968 1-328)
# Method: as §3
# [5] = Degradation of drug conjugates in presence of rat liver lysosomal homogenate (LC-MS); assay type: in vitro ADME; conditions: pH 5, 37 °C; for release of the free PTX: within 24 h
# Method: The preparation of the rat liver lysosomal homogenate was carried out as recently reported. A Qubit Protein Assay Kit (Thermo Fischer Scientific, Waltham, MA, USA) was used to examine the concentration of the lysosomal proteins.
# Initially, a stock solution of the GnRH-III-Dau conjugates in water (5 µg/µL) was prepared. For the degradation reaction, the conjugates and the lysosomal homogenate were diluted together in 0.2 M NaOAc buffer (pH 5) to a concentration of 0.25 µg/µL each. These mixtures were kept at 37 °C and at distinct time points (5 min, 1 h, 2 h, 4 h, 8 h and 24 h), 15 µL of each sample were quenched with 2 µL acetic acid and analyzed by LC-MS (System I).
# The GnRH-III-PTX conjugates were dissolved in DMSO to a concentration of 10 mM. The reaction was carried out in 0.2 M NaOAc buffer (pH 5) with 10 µM conjugate and 0.025 µg/mL lysosomal homogenate. The reaction mixtures were incubated at 37 °C and aliquots of 60 μL were taken at 5 min, 1 h, 2 h, 4 h, 8 h and 24 h and quenched with 5 μL of acetic acid. The analysis of the samples was performed by LC–MS (System-II).
# [6] = Panc-1 cells, treatment 24 h (Dau conjugates) or 6 h (PTX compounds), viability at 72 h, mean ± SE of two to three determinations, read-out: Panc-1 IC50
# [7] = A2780 cells, treatment 24 h (Dau conjugates) or 6 h (PTX compounds), viability at 72 h, mean ± SE of two to three determinations, read-out: A2780 IC50
compound,measurement,setting,value
"COc1cccc2c1C(=O)c1c(O)c3c(c(O)c1C2=O)C[C@@](O)(C(C)=O)C[C@@H]3O[C@H]1C[C@H](N)[C@H](O)[C@H](C)O1 [Dau, daunorubicin, reference compound]",IC50,"[1]; Homo sapiens, PANC-1, read-out: Panc-1 IC50",2.43 ± 0.58 µM
same,activity on Panc-1 cells lower than on A2780,[1],approximately 10 times
same,IC50,"[2]; Homo sapiens, A2780, read-out: A2780 IC50",210 ± 10 nM
"CC(=O)O[C@H]1C(=O)[C@@]2(C)[C@H]([C@H](OC(=O)c3ccccc3)[C@]3(O)C[C@H](OC(=O)[C@H](O)[C@@H](NC(=O)c4ccccc4)c4ccccc4)C(C)=C1C3(C)C)[C@]1(OC(C)=O)CO[C@@H]1C[C@@H]2O [PTX, paclitaxel, reference compound]",IC50,"[1]; Homo sapiens, Panc-1 cells, treatment 24 h (Dau conjugates) or 6 h (PTX compounds), viability at 72 h, mean ± SE of two to three determinations, read-out: Panc-1 IC50",0.17 ± 0.01 µM
same,IC50,"[2]; Homo sapiens, A2780 cells, treatment 24 h (Dau conjugates) or 6 h (PTX compounds), viability at 72 h, mean ± SE of two to three determinations, read-out: A2780 IC50",20 ± 1 nM
"CCCC(=O)NCCCC[C@H](NC(=O)[C@H](Cc1c[nH]c2ccccc12)NC(=O)[C@H](Cc1c[nH]cn1)NC(=O)[C@@H]1CCC(=O)N1)C(=O)N[C@@H](Cc1c[nH]cn1)C(=O)N[C@@H](CC(=O)O)C(=O)N[C@@H](Cc1c[nH]c2ccccc12)C(=O)N[C@@H](CCCCN)C(=O)N1CCC[C@H]1C(=O)NCC(N)=O [Peptide I, GnRH-III-[^4Lys(Bu)]]",IC50,[3],3.11 ± 0.76 nM
same,IC50,"[4]; human pituitary membranes, mean ± SE of two to three determinations, read-out: IC50 Pituitary, competitive inhibition of [125I][6D-Trp]-GnRH-I binding",2.72 ± 0.95 nM
"CCCC(=O)NCCCC[C@H](NC(=O)[C@H]1Cc2ccccc2CN1C(=O)[C@@H]1CCC(=O)N1)C(=O)N[C@@H](Cc1c[nH]cn1)C(=O)N[C@@H](CC(=O)O)C(=O)N[C@@H](Cc1c[nH]c2ccccc12)C(=O)N[C@@H](CCCCNC(=O)CCCC(=O)N[C@H](C(=O)N[C@@H](CCCNC(N)=O)C(=O)Nc1ccc(COC(=O)N[C@H]2C[C@H](O[C@H]3C[C@](O)(C(C)=O)Cc4c(O)c5c(c(O)c43)C(=O)c3c(OC)cccc3C5=O)O[C@@H](C)[C@H]2O)cc1)C(C)C)C(=O)N1CCC[C@H]1C(=O)NCC(N)=O [compound 11, GnRH-III-[2ΔHis-3D-Tic,8Lys(glutaryl-Val-Cit-PABC-Dau)]]",activity on Panc-1 cells lower than on A2780,[1],more than 20 times
same,receptor binding affinity of 11 relative to corresponding Val-Ala conjugate 13,[4]; Val-Cit vs Val-Ala,twice as high
CCCC(=O)NCCCC[C@H](NC(=O)[C@H]1Cc2ccccc2CN1C(=O)[C@@H]1CCC(=O)N1)C(=O)N[C@@H](Cc1c[nH]cn1)C(=O)N[C@@H](CC(=O)O)C(=O)N[C@@H](Cc1c[nH]c2ccccc12)C(=O)N[C@@H](CCCCNC(=O)CCCC(=O)N[C@H](C(=O)N[C@@H](C)C(=O)Nc1ccc(COC(=O)N[C@H]2C[C@H](O[C@H]3C[C@](O)(C(C)=O)Cc4c(O)c5c(c(O)c43)C(=O)c3c(OC)cccc3C5=O)O[C@@H](C)[C@H]2O)cc1)C(C)C)C(=O)N1CCC[C@H]1C(=O)NCC(N)=O [compound 13],activity on Panc-1 cells lower than on A2780,[1],more than 20 times
CCCC(=O)NCCCC[C@H](NC(=O)[C@H](Cc1c[nH]c2ccccc12)NC(=O)[C@H](Cc1c[nH]cn1)NC(=O)[C@@H]1CCC(=O)N1)C(=O)N[C@@H](Cc1c[nH]cn1)C(=O)N[C@@H](CC(=O)O)C(=O)N[C@@H](Cc1c[nH]c2ccccc12)C(=O)N[C@@H](CCCCNC(=O)CCCC(=O)N[C@H](C(=O)N[C@@H](CCCNC(N)=O)C(=O)Nc1ccc(COC(=O)N(C)CCN(C)C(=O)O[C@@H](C(=O)O[C@H]2C[C@@]3(O)[C@@H](OC(=O)c4ccccc4)[C@@H]4[C@]5(OC(C)=O)CO[C@@H]5C[C@H](O)[C@@]4(C)C(=O)[C@H](OC(C)=O)C(=C2C)C3(C)C)[C@@H](NC(=O)c2ccccc2)c2ccccc2)cc1)C(C)C)C(=O)N1CCC[C@H]1C(=O)NCC(N)=O [compound 14],IC50,[3],10.7 ± 1.82 nM
same,IC50,[1]; [6],5.03 ± 1.91 µM
same,IC50,[2]; [7],670 ± 70 nM
same,IC50,[4],10.5 ± 2.01 nM
same,detection of the diamine-PTX fragment,[5]; after 5 min of incubation,could be already detected
same,release of the free PTX,[5],could not be detected
CCCC(=O)NCCCC[C@H](NC(=O)[C@H](Cc1c[nH]c2ccccc12)NC(=O)[C@H](Cc1c[nH]cn1)NC(=O)[C@@H]1CCC(=O)N1)C(=O)N[C@@H](Cc1c[nH]cn1)C(=O)N[C@@H](CC(=O)O)C(=O)N[C@@H](Cc1c[nH]c2ccccc12)C(=O)N[C@@H](CCCCNC(=O)CCCC(=O)N[C@H](C(=O)N[C@@H](C)C(=O)Nc1ccc(COC(=O)N(C)CCN(C)C(=O)O[C@@H](C(=O)O[C@H]2C[C@@]3(O)[C@@H](OC(=O)c4ccccc4)[C@@H]4[C@]5(OC(C)=O)CO[C@@H]5C[C@H](O)[C@@]4(C)C(=O)[C@H](OC(C)=O)C(=C2C)C3(C)C)[C@@H](NC(=O)c2ccccc2)c2ccccc2)cc1)C(C)C)C(=O)N1CCC[C@H]1C(=O)NCC(N)=O [compound 16],IC50,[3],8.47 ± 1.06 nM
same,IC50,[1]; [6],4.89 ± 1.08 µM
same,IC50,[2]; [7],660 ± 180 nM
same,IC50,[4],9.86 ± 0.82 nM
same,detection of the diamine-PTX fragment,[5]; after 5 min of incubation,could be already detected
same,release of the free PTX,[5],could not be detected
"CCCC(=O)NCCCC[C@H](NC(=O)[C@H](Cc1c[nH]c2ccccc12)NC(=O)[C@H](Cc1c[nH]cn1)NC(=O)[C@@H]1CCC(=O)N1)C(=O)N[C@@H](Cc1c[nH]cn1)C(=O)N[C@@H](CC(=O)O)C(=O)N[C@@H](Cc1c[nH]c2ccccc12)C(=O)N[C@@H](CCCCNC(=O)CCCC(=O)N(C)CCN(C)C(=O)O[C@@H](C(=O)O[C@H]1C[C@@]2(O)[C@@H](OC(=O)c3ccccc3)[C@@H]3[C@]4(OC(C)=O)CO[C@@H]4C[C@H](O)[C@@]3(C)C(=O)[C@H](OC(C)=O)C(=C1C)C2(C)C)[C@@H](NC(=O)c1ccccc1)c1ccccc1)C(=O)N1CCC[C@H]1C(=O)NCC(N)=O [compound 25, GnRH-III-[2His-3Trp,8Lys(glutaryl-diamine-PTX)]]",IC50,[1]; [6],> 100 µM
same,IC50,[2]; [7],41500 ± 9830 nM
same,detection of the diamine-PTX fragment,[5]; even after 24 h of incubation,could not be detected
bombesin [reference compound],GnRH-R binding of the radiotracer affected,[4],unable to affect
same,displacement of radio-labelled triptorelin from GnRH-Rs,[4],not able to displace
somatostatin [reference compound],GnRH-R binding of the radiotracer affected,[4],unable to affect
same,displacement of radio-labelled triptorelin from GnRH-Rs,[4],not able to displace
